Data set [1] in a line: NINCDS Subcutaneous Pentylenetetrazol (Metrazol) Seizure Threshold Test (scMet). Format: in vivo, mice. The note with it: for minimal effective dose: sc, read-out: scMet: dosage level that elicited protection.
Data set [2] in a line: NINCDS rotorod ataxia test (minimal neurotoxicity). The data set is classed as in vivo, mice. The note with it: mouse, in vivo, ip; secondary evaluation, at time of peak effect. (In general: The rotarod test checks motor coordination on a turning rod.)

Where two headings read alike, the source gives them in different places.

Turning to `O=C(Cc1nc2ccccc2c(=O)n1-c1ccccc1Cl)c1ccncc1` [IVd, 2-[2-Oxo-2-(4-pyridyl)ethyl]-3-o-chlorophenyl-4(3H)-quinazolinone], the ED50 – broadly, the midpoint of the dose-response relation – in data set [1] (Mus musculus, ip, secondary evaluation, at time of peak effect) amounted to 30.8 mg/kg. Besides, the minimal effective dose in data set [1] (Mus musculus, after 0.5 hr) turned out to be 30 mg/kg. Further, the minimal effective dose in data set [1] (Mus musculus, after 4 hr (value in parentheses)) turned out to be 100 mg/kg. In data set [1] (secondary evaluation), the “PI scMet (Protective Index = TD50/ED50)” value stood at 4.44, the “potency against scMet seizures compared with methaqualone” value is “more potent”, the “scMet protective index compared with Ethosuximide” value is “higher scMet protective index than Ethosuximide” and the “scMet protective index compared with methaqualone” value is “approximately four-fold higher”. Further, in data set [1] (vs Ethotoin, Trimethadione, Paramethadione, Ethosuximide, Methsuximide, Phensuximide, Phenacamide (data of DHEW Publication No. (NIH) 76-1093)), the “scMet ED50 compared with commercial petit mal agents” value was “lower ED50 in the scMet screen than the commercially available petit mal agents”. Besides, the TD50 (commonly the dose at which the toxic effect under study appears in half of the subjects) in data set [2] was determined as 137 mg/kg.

(Values after patent publication US4183931A, “2-Ketoalkyl-4(3H)-quinazolinones” (Research Corporation, priority 1977, dated 1980).)
